Results reported in PMC8467962, “Design and Synthesis of Water-Soluble and Potent MMP-13 Inhibitors with Activity in Human Osteosarcoma Cells” (International Journal of Molecular Sciences, 2021).
≈ marks a conversion by molar mass, not a printed value. Read-outs that look alike come from different tables or passages of the source.

Experiments:
[1] = Thermodynamic solubility (shake flask method); format: physicochemical; settings: phosphate buffer, aqueous buffer, thermodynamic from solid; PBS pH 7.4, shake flask, room temperature; read-out: Experimental Water Solubility LogS (converted)
Experimental: The samples were sonicated for 10 min and shaken overnight at 800 rpm (FB15013 TopMix, Fischer Scientific, Waltham, MA, USA) at room temperature. A first phase separation of supernatant and undissolved solid was performed by centrifugation at 5000 rpm for 20 min (Biofuge primo R). The supernatant was then transferred into Eppendorf tubes for a second centrifugation. An adequate dilution was made using the particle-free supernatant and the concentration quantified by LC-HRMS using a 4-point calibration curve (Agilent 1260 Infinity II).
PART A. Calibration curves of compounds for solubility
9e, 10a-e), 4-points calibration curves were made for each compound. Calibrations curves were obtained using four different concentrations of the corresponding compound (0.1 mg/mL, 0.01 mg/mL, 0.001 mg/mL and 0.0001 mg/mL). All samples were prepared in DMSO and measured in a LC-HRMS (Agilent 1260 Infinity II).
Figure S1. Calibration curves of all active compounds (solubility studies) (1, 2, 9a, 9e, 10a-e) […]

[2] = target: T1, MMP-3 (Homo sapiens, UniProt P08254); parameters: method as in PMID 30629065; settings: panel of MMPs; cited from earlier work
T1 construct: the catalytic domains of the corresponding MMP were incubated in triplicate; purchased Enzo Life Science International, Inc
T1 sequence (P08254 100-272 limits assumed): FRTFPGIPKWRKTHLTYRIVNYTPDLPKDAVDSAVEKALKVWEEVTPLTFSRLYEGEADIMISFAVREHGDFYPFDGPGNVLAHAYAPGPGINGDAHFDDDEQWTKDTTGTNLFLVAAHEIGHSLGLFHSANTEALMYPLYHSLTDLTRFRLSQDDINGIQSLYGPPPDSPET

[3] = target: T2, MMP-13 (Homo sapiens, UniProt P45452); parameters: method as in PMID 30629065; settings: cited from earlier work
T2 construct: the catalytic domains of the corresponding MMP were incubated in triplicate; purchased Enzo Life Science International, Inc

[4] = target: T3, MMP-1 (Homo sapiens, UniProt P03956); parameters: method as in PMID 30629065; settings: panel of MMPs; cited from earlier work
T3 construct: the catalytic domains of the corresponding MMP were incubated in triplicate; purchased Enzo Life Science International, Inc
T3 sequence (P03956 100-269 limits assumed): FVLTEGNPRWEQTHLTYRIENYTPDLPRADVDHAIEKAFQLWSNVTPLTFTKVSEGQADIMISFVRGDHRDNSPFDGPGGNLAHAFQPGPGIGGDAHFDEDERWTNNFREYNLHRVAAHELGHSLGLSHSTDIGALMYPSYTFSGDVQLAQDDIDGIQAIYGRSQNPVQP

[5] = target: T4, MMP-10 (Homo sapiens, UniProt P09238); parameters: method as in PMID 30629065; settings: panel of MMPs; cited from earlier work
T4 construct: the catalytic domains of the corresponding MMP were incubated in triplicate; purchased Enzo Life Science International, Inc
T4 sequence (P09238 99-263 limits assumed): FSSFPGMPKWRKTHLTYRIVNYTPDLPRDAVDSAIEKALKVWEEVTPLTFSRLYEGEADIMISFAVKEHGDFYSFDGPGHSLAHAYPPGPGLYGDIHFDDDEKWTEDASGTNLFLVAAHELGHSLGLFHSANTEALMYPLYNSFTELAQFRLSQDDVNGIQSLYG

[6] = target: T5, MMP-14 (Homo sapiens, UniProt P50281); parameters: method as in PMID 30629065; settings: panel of MMPs; cited from earlier work
T5 construct: the catalytic domains of the corresponding MMP were incubated in triplicate; purchased Enzo Life Science International, Inc

[7] = target: T6, MMP-2 (Homo sapiens, UniProt P08253); parameters: method as in PMID 30629065; settings: cited from earlier work
T6 construct: the catalytic domains of the corresponding MMP were incubated in triplicate; purchased Enzo Life Science International, Inc
T6 sequence (P08253 110-446 limits assumed): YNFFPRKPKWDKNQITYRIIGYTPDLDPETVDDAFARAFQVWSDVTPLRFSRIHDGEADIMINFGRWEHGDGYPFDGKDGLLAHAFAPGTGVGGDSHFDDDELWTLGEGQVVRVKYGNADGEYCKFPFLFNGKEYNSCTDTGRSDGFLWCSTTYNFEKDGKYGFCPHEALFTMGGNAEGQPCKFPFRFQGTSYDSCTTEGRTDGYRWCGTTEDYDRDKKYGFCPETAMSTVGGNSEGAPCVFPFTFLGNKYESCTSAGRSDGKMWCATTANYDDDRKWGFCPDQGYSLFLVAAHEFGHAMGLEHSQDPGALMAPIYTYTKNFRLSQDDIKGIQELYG

[8] = target: T7, MMP-9 (Homo sapiens, UniProt P14780); parameters: method as in PMID 30629065; settings: panel of MMPs; cited from earlier work
T7 construct: the catalytic domains of the corresponding MMP were incubated in triplicate; purchased Enzo Life Science International, Inc
T7 sequence (P14780 107-444 limits assumed): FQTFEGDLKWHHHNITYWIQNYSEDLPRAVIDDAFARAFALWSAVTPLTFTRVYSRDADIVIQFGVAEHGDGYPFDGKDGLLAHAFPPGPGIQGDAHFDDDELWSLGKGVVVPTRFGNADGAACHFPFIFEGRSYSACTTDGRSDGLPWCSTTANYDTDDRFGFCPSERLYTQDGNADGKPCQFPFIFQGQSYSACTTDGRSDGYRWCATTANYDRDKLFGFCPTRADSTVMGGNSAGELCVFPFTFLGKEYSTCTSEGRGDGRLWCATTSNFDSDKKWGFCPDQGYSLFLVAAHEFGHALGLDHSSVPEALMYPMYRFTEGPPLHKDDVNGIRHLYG

[9] = target: T8, MMP-7 (Homo sapiens, UniProt P09237); parameters: method as in PMID 30629065; settings: panel of MMPs; cited from earlier work
T8 construct: the catalytic domains of the corresponding MMP were incubated in triplicate; purchased Enzo Life Science International, Inc
T8 sequence (P09237 95-267): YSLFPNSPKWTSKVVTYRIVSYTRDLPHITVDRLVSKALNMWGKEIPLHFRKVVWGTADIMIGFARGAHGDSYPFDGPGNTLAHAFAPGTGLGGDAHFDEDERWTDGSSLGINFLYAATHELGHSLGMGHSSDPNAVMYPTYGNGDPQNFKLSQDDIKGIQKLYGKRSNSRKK

[10] = target: T9, MMP-8 (Homo sapiens, UniProt P22894); parameters: method as in PMID 30629065; settings: panel of MMPs; cited from earlier work
T9 construct: the catalytic domains of the corresponding MMP were incubated in triplicate; purchased Enzo Life Science International, Inc
T9 sequence (P22894 100-262 limits assumed): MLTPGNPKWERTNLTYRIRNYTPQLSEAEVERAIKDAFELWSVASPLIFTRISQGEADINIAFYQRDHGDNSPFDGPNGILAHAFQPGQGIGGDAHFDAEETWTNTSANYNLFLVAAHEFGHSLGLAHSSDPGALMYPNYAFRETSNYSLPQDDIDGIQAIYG

[11] = target: T10, MMP-12 (Homo sapiens, UniProt P39900); parameters: method as in PMID 30629065; settings: panel of MMPs; cited from earlier work
T10 construct: the catalytic domains of the corresponding MMP were incubated in triplicate; purchased Enzo Life Science International, Inc
T10 sequence (P39900 106-263 limits assumed): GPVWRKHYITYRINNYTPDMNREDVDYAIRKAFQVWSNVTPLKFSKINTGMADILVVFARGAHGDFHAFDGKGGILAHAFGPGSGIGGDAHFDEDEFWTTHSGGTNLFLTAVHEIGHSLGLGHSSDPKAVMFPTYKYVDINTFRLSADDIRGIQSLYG

Question: What does the source list for `O=C(NO)[C@@H](Cc1ccccc1)NS(=O)(=O)c1ccc(-n2cc(CCn3nc4c(Br)c(Br)c(Br)c(Br)c4n3)nn2)cc1` [Compound 1]?
Answer: solubility [1]: 2.88 µM (≈ 2.45 µg/mL); IC50 [2]: 500 nM; IC50 ([3]; panel of MMPs, read-out: IC50 MMP-13): 3.7 nM; IC50 ([3]; previous work, read-out: MMP-13 IC50): 3.7 ± 1.85 nM; IC50 [4]: > 1000 nM; IC50 [5]: 434 nM; IC50 [6]: > 1000 nM; IC50 ([7]; panel of MMPs, read-out: IC50 MMP-2): 70 nM; IC50 ([7]; previous work, read-out: MMP-2 IC50): 70 nM; IC50 [8]: > 500 nM; IC50 [9]: > 1000 nM; IC50 [10]: > 500 nM; IC50 [11]: 17.8 nM
